Experimental data as given in US20250372228A1, “METHOD AND SYSTEM FOR D[…] PHARMACOKINETIC MODEL OF PROPOFOL AND DERIVATIVE THEREOF” (Xizang Haisco Pharmaceutical Co., Ltd., priority 2020, published 2025).
Where two headings read alike, the source gives them in different places.

Assays:
[1] = Population pharmacokinetic (PopPK) three-compartment model of the propofol derivative from clinical trial plasma concentrations; type: in vivo, human; settings: for Intercompartmental clearance between the central compartment and the peripheral compartment 1, Q2: exp(θ3); for Volume of distribution in the peripheral compartment 1, V2: exp(θ4); for Clearance between the central compartment and the peripheral compartment 2, Q3: exp(θ5); for Volume of distribution in the peripheral compartment 2, V3: exp(θ6); for relative median change of CL by total protein: total protein range not given; for Residual of venous blood collection (%): σ1; for Residual of arterial blood collection (%): σ2; for Interindividual variation of clearance, CL %: ωCL; for Interindividual variation of intercompartmental clearance between the central compartment and the peripheral compartment 1, Q2%: ωQ2; for Interindividual variation of intercompartmental clearance between the central compartment and the peripheral compartment 2, Q3%: ωQ3; for Interindividual variation of volume of distribution in the central compartment, V1%: ωV1; for Interindividual variation of volume of distribution in the peripheral compartment 2, V3%: ωV3
Excerpt: The original data set comprises 2609 measurable plasma drug concentration data from 219 subjects (wherein 81 people receive both arterial and venous blood collection, and subjects receiving another blood collecting method are regarded as new individuals, that is, 300 individuals are included in the population analysis).
By using a stepwise backward elimination method, no influence factors are eliminated (Δ−2LL>10.83).

[2] = Free drug concentration in the aqueous phase by ultrafiltration method; type: physicochemical; settings: same conditions and concentrations, compared with propofol (Jingan®)
Excerpt: Propofol derivative injectable emulsion (hereinafter referred to as propofol derivative, with a chemical name of 2-[(1R)-1-cyclopropylethyl]-6-isopropyl-phenol), which is developed by Sichuan Haisco Pharmaceutical Co., Ltd. as a novel intravenous anesthetic with independent intellectual property rights, is intended to be used for sedation/anesthesia in various diagnostic examinations or treatments, induction and maintenance of general anesthesia, and sedation (ICU sedation) of intensive care subjects under mechanical ventilation. The propofol derivative, as the active ingredient, is a chemical entity similar to propofol, and is a single […] with two chiral centers of R-configuration. […] The main action mechanism of the propofol derivative is to allow for the inflow of chloride ions by enhancing an ion channel mediated by a γ-aminobutyric acid type A (GABAA) receptor, thereby achieving the inhibition of the nervous centralis. The channel is also a main target where propofol exerts its effects. The propofol derivative has the pharmacodynamic characteristics of fast onset of action and stable and rapid recovery.

[3] = tested on: γ-aminobutyric acid type A (GABAA) receptor; assay: Potency compared with propofol (background statement)
[4] = clinical; settings: human, plasma, intravenous; for clearance: CL, exp(θ1); for Vd: Volume of distribution in the central compartment, V1, exp(θ2)
[5] = for Volume of distribution in the peripheral compartment 2, V3: exp(6); for Volume of distribution in the peripheral compartment 2, V3 / Clearance between the central compartment and the peripheral compartment 2, Q3: parameter fixed (FIX); for Intercompartmental clearance between the central compartment and the peripheral compartment 1, Q2: exp(θ3); for Volume of distribution in the peripheral compartment 1, V2: exp(θ4); for Clearance between the central compartment and the peripheral compartment 2, Q3: exp(θ5); for Residual (%): σ1; for Clearance, CL %: ωCL (interindividual variation); for Volume of distribution in the central compartment, V1%: ωV1 (interindividual variation)
[6] = median of Bootstrap (2.5th to 97.5th percentiles)
[7] = typical value of final population model (95% CI)
[8] = typical value of final population model

SMILES: CC(C)c1cccc([C@H](C)C2CC2)c1O [propofol derivative, 2-[(1R)-1-cyclopropylethyl]-6-isopropyl-phenol]
- influence of age on AUC0-24 ([1]; age 19.8 to 53 years old, propofol derivative-302 trial): no influence
- influence of age on Cmax ([1]; age 19.8 to 53 years old, propofol derivative-302 trial, expected to be clinically insignificant): has an influence
- Clearance, CL ([1]; exp(θ1), median of Bootstrap (2.5th to 97.5th percentiles)): 66.4 (63.7 to 69.4) L/hr
- Volume of distribution in the central compartment, V1 ([1]; exp(θ2), median of Bootstrap (2.5th to 97.5th percentiles)): 2.48 (2.27 to 2.74) L
- Intercompartmental clearance between the central compartment and the peripheral compartment 1, Q2 [1, 6]: 57.9 (51.5 to 65.6) L/hr
- Intercompartmental clearance between the central compartment and the peripheral compartment 1, Q2 [1, 7]: 58 (50.8 to 65.1) L/hr
- Volume of distribution in the peripheral compartment 1, V2 [1, 6]: 5.74 (5.07 to 6.7) L
- Volume of distribution in the peripheral compartment 1, V2 [1, 7]: 5.77 (4.96 to 6.58) L
- Clearance between the central compartment and the peripheral compartment 2, Q3 [1, 6]: 59.1 (54.6 to 63.6) L/hr
- Clearance between the central compartment and the peripheral compartment 2, Q3 [1, 7]: 59.0 (54.5 to 63.5) L/hr
- Volume of distribution in the peripheral compartment 2, V3 [1, 6]: 78.4 (73 to 83.9) L
- Volume of distribution in the peripheral compartment 2, V3 [1, 7]: 78.3 (72.8 to 83.8) L
- relative median change of CL by total protein ([1]; first value of the pair): 6.8%
- clearance ([1]; human, plasma, intravenous, exp(θ1), typical value of final population model (95% CI), read-out: Clearance, CL (converted)): 1110 mL/min
- Vd ([1]; human, plasma, intravenous, exp(θ2), typical value of final population model (95% CI), read-out: Volume of distribution in the central compartment, V1): 2.48 L
- relative median change of CL by total protein ([1]; second value of the pair): −6.3%
- relative median change of CL by weight ([1]; weight 45 kg (lower end of range 45 kg to 90 kg)): −11.6%
- relative median change of CL by weight ([1]; weight 90 kg (upper end of range 45 kg to 90 kg)): 12.7%
- Residual of venous blood collection (%) [1, 6]: 30.5 (26.3 to 34.6) %
- Residual of venous blood collection (%) [1, 7]: 30.6 (26.6 to 34.5) %
- Residual of arterial blood collection (%) [1, 6]: 16.9 (15.7 to 18.2) %
- Residual of arterial blood collection (%) [1, 7]: 16.9 (15.8 to 18.1) %
- Interindividual variation of clearance, CL % [1, 6]: 14.3 (11.9 to 17) %
- Interindividual variation of clearance, CL % [1, 7]: 14.5 (12 to 16.9) %
- Interindividual variation of intercompartmental clearance between the central compartment and the peripheral compartment 1, Q2% [1, 6]: 29.0 (23.1 to 35.5) %
- Interindividual variation of intercompartmental clearance between the central compartment and the peripheral compartment 1, Q2% [1, 7]: 28.9 (23.1 to 34.7) %
- Interindividual variation of intercompartmental clearance between the central compartment and the peripheral compartment 2, Q3% [1, 6]: 28.8 (22.8 to 36.3) %
- Interindividual variation of intercompartmental clearance between the central compartment and the peripheral compartment 2, Q3% [1, 7]: 29.1 (23.1 to 35.1) %
- Interindividual variation of volume of distribution in the central compartment, V1% [1, 6]: 40.4 (27.7 to 54.5) %
- Interindividual variation of volume of distribution in the central compartment, V1% [1, 7]: 41.4 (28 to 54.9) %
- Interindividual variation of volume of distribution in the peripheral compartment 2, V3% [1, 6]: 30.5 (25.3 to 35.7) %
- Interindividual variation of volume of distribution in the peripheral compartment 2, V3% [1, 7]: 30.7 (25.6 to 35.8) %
- free drug concentration in the aqueous phase [2]: lower free drug concentration in the aqueous phase
- potency relative to propofol [3]: 4-5 times

SMILES: CC(C)c1cccc(C(C)C)c1O [propofol]
- clearance [4, 6]: 1530 mL/min
- clearance [4, 7]: 1590 mL/min
- Vd [4, 6]: 8.92 L
- Vd [4, 7]: 9.46 L
- influence of covariates on the pharmacokinetic parameters ([5]; covariate screening, forward and backward method): not found that covariates have a significant influence
- Volume of distribution in the peripheral compartment 2, V3 ([5]; Bootstrap column): 262, FIX(—) L
- Volume of distribution in the peripheral compartment 2, V3 [5, 8]: 262, FIX(—) L
- Intercompartmental clearance between the central compartment and the peripheral compartment 1, Q2 [5, 6]: 132 (13.0 to 200) L/hr
- Intercompartmental clearance between the central compartment and the peripheral compartment 1, Q2 [5, 7]: 142 (88.4 to 196) L/hr
- Volume of distribution in the peripheral compartment 1, V2 [5, 6]: 35.6 (1.64 to 53.3) L
- Volume of distribution in the peripheral compartment 1, V2 [5, 7]: 37.6 (25.2 to 50.0) L
- Clearance between the central compartment and the peripheral compartment 2, Q3 ([5]; Bootstrap column): 48.6, FIX(—) L/hr
- Clearance between the central compartment and the peripheral compartment 2, Q3 [5, 8]: 48.6, FIX(—) L/hr
- Residual (%) [5, 6]: 17.1 (11 to 23.1) %
- Residual (%) [5, 7]: 19.2 (12.7 to 25.7) %
- Clearance, CL % [5, 6]: 22.5 (13.6 to 30.6) %
- Clearance, CL % [5, 7]: 23.0 (14.8 to 31.1) %
- Volume of distribution in the central compartment, V1% [5, 6]: 32.4 (6.02 to 49.5) %
- Volume of distribution in the central compartment, V1% [5, 7]: 30.5 (8.11 to 52.9) %
